The subject of data set [1] is primary hfRPE culture. Nature of the data set: UAM-induced senescence (β-galactosidase activity). The data set is classed as cell-based, human. The source says:
FIG. 6. FLBZ alleviates UAM-induced senescence and tight-junction disruption. (A) (Top) FLBZ reduces senescence when fed concurrently with oxOS during UAM accumulation. (Bottom) FLBZ is unable to reverse established senescence induced by already accumulated UAM. FLBZ is fed daily together with oxOS for 20 days in a month (top) or after one month of 20 oxOS feedings to induce UAM buildup (bottom). DMSO as vehicle control. Senescence measured by β-galactosidase activity (blue). Scale bar: 50 μm. n=6. […] Left graph n=6, right graph n=12. ns p>0.05, *p<0.05, ***p<0.001.
UAM accumulation and quantification as well as assays on senescence were carried out [Ref. 51; incorporated by reference in its entirety]. UAM granule size was measured with Leica LAS X software using the length of the long axis of the granule ellipse.

Data set [2] has as its system primary hfRPE culture.
Experimental: Phagocytosis assays using bovine outer segments was performed using the “pulse-only” method [Ref 43; incorporated by reference in its entirety]. Values at the zero-hour timepoint were used for normalization.
In data set [3] the test system is primary RPE cultures. Nature of the data set: APOE secretion by western blotting of supernates. It counts as cell-based, human. The following applies: 24 hours. The method, then:
(§1) After 24 hours of exposure to drugs, supernates were collected and subjected to western blotting for APOE detection and a fluorometric assay for β-HB detection [Ref 51; incorporated by reference in its entirety]. Twenty microliters of apical and basolateral supernates for APOE were mixed with SDS sample buffer and blotted with antibody at a dilution of 1:2000. APOE and β-HB values were normalized to the average value of the vehicle and experimental group within each experimental repeat.
(§2) The RPE handles an enormous lipid burden on a daily basis, including OS ingestion from its apical side and lipoprotein particle absorption from its basolateral side. Rather than storing excess lipid, the RPE may choose to degrade or secrete surplus lipids (FIG. 4a). A marker of lipid degradation is the production of KBs, which are secreted by the RPE apically and serve as an energy source for photoreceptors [Refs. 7,8; incorporated by reference in their entireties]. A marker of lipid secretion is the production of the lipoprotein APOE, which is a major component of drusen [Ref. 50; incorporated by reference in its entirety]. It was contemplated that autophagy inducers promote ketogenesis through degradation of ingested lipids, reducing the stimulus for secretion of drusen-promoting APOE.
For orientation: Immunoblotting shows a protein as a band on a membrane.

The subject of another data set is ARPE-19. Nature of the data set: LC3 colocalization to UAM granules. The data set is classed as cell-based, human. As to conditions: ARPE-19 treated with drug. The source says: FIG. 5. Autophagy inducer FLBZ reduces accumulation of lipofuscin-like material. (A) Lipofuscin-like material, which we term undigestible autofluorescent material (UAM), accumulates in RPE after repeated feedings of photo-oxidized outer segments (oxOS). UAM granules (green). DAPI (blue). Phalloidin stain of F-actin outlining cell borders (pink). Scale bar: 10 μm. (B) Effects of FLBZ or Torin on UAM accumulation (left) and elimination (right). FLBZ or Torin is fed together with oxOS daily for 20 days in a month (left, n=5) or fed daily for 20 days in a month after completion of oxOS feedings to stimulate UAM accumulation (right, n=7). Unlike Torin, FLBZ both reduces UAM accumulation and increases UAM elimination. DMSO as vehicle control. U 673 AM normalized to DMSO condition. […] UAM (red). LC3 (green). DAPI (blue). Arrows indicate LC3 puncta surrounding a lipofuscin granule. Scale bar: 2 μm. (D) Effects of FLBZ on UAM granule size. Compared to vehicle (DMSO), FLBZ decreases UAM granule size both during oxOS feedings (left) and after UAM buildup has already occurred (right). n=40. ns p>0.05, *p<0.05, **p<0.01, ***p<0.001.
Human fetal eyes were obtained from Advanced Bioscience Resources (ABR, Alameda, California) and cultured [Ref. 43; incorporated by reference in its entirety]. ARPE-19 cells were cultured at passage 19 [Ref. 51; incorporated by reference in its entirety].

Another data set concerns RPE from mouse eyecups. In words: Ex vivo mouse eyecup autophagy induction (LC3II/LC3I ratio). The following applies: 24 hours. As to the method: FIG. 14. Effect of autophagy positive control Torin on RPE from mouse eyecups (DMSO as control). […] Mouse eyes were enucleated, the anterior segment vitreous, and retina were removed, leaving an eyecup with RPE/choroid exposed. […] RPE/Choroid eyecup was treated with 1 uM Torin1 in our previously established RPE cell culture media for 24 hours. n=4.
FIG. 15. Effect of Flubendazole on RPE from Mouse Eyecups (DMSO as control). Conditions with and without ammonium chloride (NH4Cl) help establish high autophagy flux rates. If true autophagy flux is happening, the LC3II/LC3I ratio should increase further upon addition of NH4Cl, as is the case here. DMSO− and FLBZ−, n=6, FLBZ+ and DMSO+ n=5. Flubendazole tested at 60 uM, lysates collected after 24 hours. Induction did occur in eyecups.
Given the inconsistent results with detecting autophagy induction using intravitreal injection of the positive control, Torin, experiments were conducted to determine whether the lack of responsiveness to intravitreal injections was a drug access issue or whether it was a species or animal vs. culture difference. Additional experiments utilized freshly isolated mouse eyecups with the retina removed to determine whether Torin (and FLBZ) induce autophagy in this context. […] The use of ammonium chloride in these experiments blocks lysosomal degradation.

A further data set deals with hfRPE. It counts as cell-based, human. As to the method:
Whole mounted Transwells (in duplicate) are photographed.
To evaluate the safety of D4476 and FLBZ, trans-epithelial electrical resistance (TEER) was measured, a measure of tight-junction integrity, in RPE cultures after prolonged exposure to each compound. As well-formed tight-junctions require myriad cell processes to be optimally coordinated, assessing TEER provides an easily measurable, ongoing, and noninvasive marker for general RPE cell health [Ref. 45; incorporated by reference in its entirety]. […] Lactate dehydrogenase (LDH) release, a combined marker of necrotic and late-stage apoptotic cell death [Refs. 47,48; incorporated by reference in their entireties], was reduced compared to vehicle for all four verified RPE autophagy inducers (FIG. 3b). Exposure of RPE cultures to the oxidant tert-butyl hydroperoxide confirmed the ability of the assay to detect cell death (FIG. 10).

Data set [4] deals with primary hfRPE culture. Nature of the data set: Undigestible autofluorescent material (UAM) accumulation, elimination and granule size after oxOS feedings. It counts as cell-based, human.
In data set [5] the test system is primary RPE cultures. Nature of the data set: Ketone body production (β-hydroxybutyrate, β-HB) fluorometric assay. The following applies: 24 hours, apical supernate. The data set is classed as cell-based, human. As to the method:
as §1, §2

Here are results for 1 molecule from patent US20240058308A1, “TREATMENT AND PREVENTION OF DRY MACULAR DEGENERATION” (The Regents of the University of Michigan, priority 2021, published 2024).

With `COC(=O)Nc1nc2cc(C(=O)c3ccc(F)cc3)ccc2[nH]1` [FLBZ, Flubendazole], the “Senescence, drug after UAM had accumulated” value with primary hfRPE culture [1] (drug fed after one month of 20 oxOS feedings) is recorded as “cell senescence was not decreased”. In addition, the “Senescence, drug cofed with oxOS” value with primary hfRPE culture [1] (fed daily together with oxOS for 20 days in a month, vs vehicle) was “less senescence”. The “OS phagocytosis efficiency / OS degradative capacity” value in the data set with primary hfRPE culture [2] is given as “no effect on OS degradative capacity”. For the same molecule, in the data set on primary RPE cultures [3], the “APOE secretion, apical and basolateral” value was “reduced the apical and basolateral secretion of APOE”. The “LC3 colocalization to UAM granules” value in the data set with ARPE-19 is “LC3 colocalization to UAM granules”. The “Autophagy induction in eyecups (LC3II/LC3I ratio)” value with RPE from mouse eyecups (mouse RPE/choroid eyecup, Torin 1-5 uM, FLBZ 12-60 uM) is “induces autophagy well”. Besides, the “Autophagy flux in eyecups: LC3-II/LC3-I ratio with vs without ammonium chloride” value with RPE from mouse eyecups (mouse eyecups, FLBZ 60 uM) is reported as “higher LC3-II/LC3-I ratio with ammonium chloride than without ammonium chloride”. The RPE pigmentation result in the data set on hfRPE was “preserved pigmentation”. In addition, in the data set with primary hfRPE culture [4] (concurrent feeding of oxOS and drug), the “UAM granule size, drug during oxOS feedings” value is listed as “smaller than untreated cultures”. The “UAM accumulation, drug fed concurrently with oxOS” value in the data set with primary hfRPE culture [4] (fed daily with oxOS over a month, FLBZ 12 μM, Torin 1 μM, vs vehicle) was “significantly less UAM accumulation”. Moreover, in the data set with primary hfRPE culture [4] (twenty drug feedings after UAM accrual), the “UAM granule size, drug after UAM buildup” value is listed as “smaller granule size”. Moreover, the “UAM level, drug fed after UAM had accumulated” value in the data set on primary hfRPE culture [4] (twenty oxOS feedings, wash, then twenty drug feedings over an additional month) is listed as “significantly lower levels of UAM”. The “β-hydroxybutyrate (β-HB) production” value in the data set with primary RPE cultures [5] is “increased production”.
